Experiment [1] has as its system green algae Chlamydomonas reinhardtii (CC-125). As to the kind of experiment: Algal fluorescence inhibition (F25m) measured with the microfluidic OLED/OPD test apparatus. It is filed as cell-based. Conditions: 1×10^6 cell/ml algal culture. The protocol: According to an experimental evaluation using the test apparatus, green algae Chlamydomonas reinhardtii (CC-125) was cultivated in 250 mL Erlenmeyer flasks in High Salt Medium (HSM) with the adjusted pH=6.8±0.1. The algae were grown at 25° C. under a light intensity of 100 μmol·m-2·s-1 provided by white-light neon lamps and a 16 h-light/8 h-dark cycle. Cells were maintained continuously in the mid-exponential growth phase (up to 4×10^6 cell/ml) before experiments. To measure the minimum density of algae that can be detected, successive dilutions of a 3×10^6 cell/ml algal culture were prepared in HSM. These solutions were dark adapted for 15 min before fluorescence measurement in order to reoxidize photosystem II reaction centers.
According to the experimental evaluation using the test apparatus, pollutant detection measurements, a 1×10^6 cell/ml green algal culture was used. […] Algal exposure to ethanol concentration used in this study (without DCMU) had no effect on the fluorescence measurements (data not shown). […]
It was noticed that the injection of the pollutant changes fluorescence kinetics. An increase in the fluorescence signal for the first 100 ms, proportional to the pollutant concentration was observed. DCMU induced this fluorescence increase because it blocks the electron transfer in PSII. […]

Experiment [2] has the same test system. As to the kind of experiment: Algal fluorescence inhibition (Vj) measured with the commercial Handy-PEA fluorometer. Conditions: Handy-PEA commercial system, 1×10^6 cell/ml algal culture, same experimental conditions, read-out: concentration of DCMU inhibiting 50% of the algae photochemistry (EC50), evaluated with Vj. Format: cell-based. Here is the method: According to the experimental evaluation using the test apparatus, pollutant detection measurements, a 1×10^6 cell/ml green algal culture was used. Different concentrations of Diuron or DCMU (3(3,4-dichlorophenyl)-1,1-dimethylurea from Aldrich) were prepared in pure ethanol. For each measurement, 30 μL of DCMU was mixed with 2 mL of algal solution. The mixtures were exposed for 30 min under a 100 μmol·m-2·s-1 light intensity, and then dark adapted for 15 min before being injected into the microfluidic chip with a syringe pump to fully fill a microfluidic chamber (around 10 μL). Algal exposure to ethanol concentration used in this study (without DCMU) had no effect on the fluorescence measurements (data not shown). Each measurement was replicated three times. […]
According to the experimental evaluation using the test apparatus, Handy-PEA fluorometer (Hansatech Ltd.) was used as the commercial available equipment to be compared with the microfluidic sensor. […] Fluorescence emission was detected for wavelengths over 700 nm.
According to the experimental evaluation using the test apparatus, from this kinetic of the fluorescence signal, it is possible to extract several parameters representing physiological processes. […] The relative variable fluorescence at 2 ms Vj is very sensitive to Diuron as it is proportional to reaction centers closed at 2 ms. […]

A further experiment concerns Algae culture CC125. As to the kind of experiment: Oxygen concentration measurement with the nanofilament electrical detector in a microfluidic channel. The following applies: 1 μM Diuron; CC125 5M cell/ml; -0.6V between working and reference electrode. It is filed as cell-based, Chlamydomonas reinhardtii. Here is the method:
According to an experimental evaluation, in order to measure the oxygen level, the electrodes making up the electrical detector are integrated in a glass microfluidic channel, and aligned on an OLED. Algae culture CC125 (5M cell/ml concentration) is injected in the microfluidic channel, the oxygen measure being continuously taken through applying-0.6V between the working electrode and the reference electrode. A Diuron concentration of 1 uM is added to the algae culture before the injection into the chip and the measuring. Standard measures of 1 uM of pollutant were made in triplicate.
Oxygen variation of algae, which is the combination of both production and breathing of algae, can therefore be linked to the pollutant concentration contained in the analyte. In order to measure oxygen production, this detector is also composed of the same organic light source used by the fluorescence detector (OLED.
FIG. 22A refers to oxygen concentration levels measured with the electrical detector for 1 μM of Diuron and with a reference (that has not been exposed to Diuron).

pEC50: −log10 of the molar value.

On to `CN(C)C(=O)Nc1ccc(Cl)c(Cl)c1` [Diuron, 3(3,4-dichlorophenyl)-1,1-dimethylurea], for which the “lowest concentration tested that gave a significant difference with the control algae for the Finh parameter” value in experiment [1] (30 min of light exposure) was 7.5 nM. Further, the pEC50 in experiment [1] (Chlamydomonas reinhardtii, test apparatus, 30 min light exposure, 15 min dark adaptation, read-out: concentration of DCMU inhibiting 50% of the algae photochemistry (EC50), evaluated with F25m) is 7.96; in experiment [2], 6.66. In addition, in the experiment with Algae culture CC125, the “decrease in total oxygen production from algae” value is recorded as “about 26%”.

These data come from patent publication US20150107993A1, “METHODS AND APPARATUSES FOR […] POLLUTION” (Transfert Plus, s.e.c., priority 2012, published 2015).
